For experiment [1], the target named is T1, beta-catenin/TCF4 engagement (Homo sapiens, UniProt P35222).
T1 construct: expressed in transfected cells; host or cells: HEK293
T1 sequence (P35222 1-781): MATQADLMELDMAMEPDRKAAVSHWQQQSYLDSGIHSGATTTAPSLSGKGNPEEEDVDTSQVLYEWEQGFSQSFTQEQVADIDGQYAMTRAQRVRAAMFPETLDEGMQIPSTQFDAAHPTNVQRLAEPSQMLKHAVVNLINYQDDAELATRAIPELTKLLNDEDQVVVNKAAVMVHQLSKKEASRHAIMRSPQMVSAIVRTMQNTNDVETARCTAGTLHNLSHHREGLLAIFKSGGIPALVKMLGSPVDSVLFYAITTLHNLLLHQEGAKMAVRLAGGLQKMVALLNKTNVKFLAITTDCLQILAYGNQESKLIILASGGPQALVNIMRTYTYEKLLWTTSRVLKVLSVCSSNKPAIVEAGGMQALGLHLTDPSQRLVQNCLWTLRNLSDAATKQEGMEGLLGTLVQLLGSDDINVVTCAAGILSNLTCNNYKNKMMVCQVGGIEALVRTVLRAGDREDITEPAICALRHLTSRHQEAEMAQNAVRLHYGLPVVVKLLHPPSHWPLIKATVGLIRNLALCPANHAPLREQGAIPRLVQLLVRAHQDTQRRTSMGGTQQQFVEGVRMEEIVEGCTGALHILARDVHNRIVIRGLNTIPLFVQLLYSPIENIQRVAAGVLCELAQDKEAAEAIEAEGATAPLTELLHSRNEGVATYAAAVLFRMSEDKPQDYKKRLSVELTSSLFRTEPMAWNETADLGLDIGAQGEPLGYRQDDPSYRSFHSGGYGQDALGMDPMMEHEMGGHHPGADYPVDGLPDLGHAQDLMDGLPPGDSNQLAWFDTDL
Description: Nano-BRET target engagement assay (B-cat-Halo & TCF4-Luc in HEK293 cells). The class given is cell-based. The settings on record: read-out: NanoBRET Abs IC50. In general terms: In BRET a luciferase serves as donor, and the signal depends on an acceptor being close.

The target in experiment [2] is T2, full-length beta-Catenin (Uniprot ID P35222) (Homo sapiens, UniProt P35222).
T2 construct: 10 nM full-length beta-Catenin (Uniprot ID P35222)
T2 sequence (P35222 1-781): T1 sequence (P35222 1-781)
Description: Fluorescence polarization IC50 (beta-catenin / 5FAM-TCF4 10-53 competition). The class given is binding. The following applies: fluorescence polarization; read-out: beta-Catenin FP IC50.

For `CC(=O)N1CCC[C@]12CC=CCCCC1(CCCC=CCCCOC(=O)N3CC[C@@](C(=O)N[C@@H](Cc4ccccc4Cl)C(=O)N[C@@H](Cc4csc5ccccc45)C(=O)N[C@@H](CO)C(N)=O)(C3)NC(=O)[C@H](CC(C)C)NC(=O)[C@H](Cc3ccccc3)NC(=O)[C@H](C)NC(=O)[C@H](CO)NC(=O)[C@H](Cc3cccc(C(=O)O)c3)NC(=O)[C@H](CC(=O)O)NC1=O)NC(=O)[C@H](CC(C)(C)C)NC(=O)[C@H](CC(=O)O)NC2=O` (stereo partly drawn) [I-1901, Ac-PL3-Asp-Npg-B5-Asp-3COOHF-Ser-Ala-Phe-Leu-PyrS2-2C1F-BztA-Ser-NH2], the IC50 – broadly, the concentration that inhibits the measured activity by half – in experiment [1] is 4900 nM; in experiment [2] it was 34 nM.
For the compound `CC(=O)N1CCC[C@]12CC=CCCCC1(CCCC=CCCCOC(=O)N3CC[C@@](C(=O)N[C@@H](Cc4ccccc4Cl)C(=O)N[C@@H](Cc4csc5ccccc45)C(=O)N[C@@H](CO)C(N)=O)(C3)NC(=O)[C@H](CC(C)C)NC(=O)[C@H](Cc3ccccc3)NC(=O)[C@H](C)NC(=O)[C@H](CO)NC(=O)[C@H](Cc3cccc(C(=O)O)c3)NC(=O)[C@H](CC(=O)O)NC1=O)NC(=O)[C@H](CC(C)(C)C)NC(=O)[C@H](CC(=O)O)NC2=O` (stereo partly drawn) [I-1902, Ac-PL3-Asp-Npg-B5-Asp-3COOHF-Ser-Ala-Phe-Leu-PyrS2-2C1F-BztA-Ser-NH2], the half-maximal inhibitory concentration (IC50) in experiment [1] is 7700 nM; in experiment [2] it was 28 nM.
Take `CC(=O)N1CCC[C@]12CC=CCCCC1(CCCC=CCCCOC(=O)N3CC[C@@](C(=O)N[C@@H](Cc4ccccc4Cl)C(=O)N[C@@H](Cc4csc5ccccc45)C(=O)N[C@@H](CO)C(N)=O)(C3)NC(=O)[C@H](CO)NC(=O)[C@H](Cc3ccccc3)NC(=O)[C@H](C)NC(=O)[C@H](C)NC(=O)[C@H](Cc3cccc(C(=O)O)c3)NC(=O)[C@H](CC(=O)O)NC1=O)NC(=O)[C@H](CC(C)(C)C)NC(=O)[C@H](CC(=O)O)NC2=O` (stereo partly drawn) [I-1903, Ac-PL3-Asp-Npg-B5-Asp-3COOHF-Ala-Ala-Phe-Ser-PyrS2-2C1F-BztA-Ser-NH2]: the IC50 in experiment [1] turned out to be 6400 nM; in experiment [2], 14 nM.
The like results for `CC(=O)N1CCC[C@]12CC=CCCCC1(CCCC=CCCCOC(=O)N3CC[C@@](C(=O)N[C@@H](Cc4ccccc4Cl)C(=O)N[C@@H](Cc4csc5ccccc45)C(=O)N[C@@H](CO)C(=O)N[C@H](CO)[C@@H](C)O)(C3)NC(=O)[C@H](CC(C)C)NC(=O)[C@H](Cc3ccccc3)NC(=O)[C@H](C)NC(=O)[C@H](C)NC(=O)[C@H](Cc3cccc(C(=O)O)c3)NC(=O)[C@H](CC(=O)O)NC1=O)NC(=O)[C@H](CC(C)(C)C)NC(=O)[C@H](CC(=O)O)NC2=O` (stereo partly drawn) [I-1905, Ac-PL3-Asp-Npg-B5-Asp-3COOHF-Ala-Ala-Phe-Leu-PyrS2-2C1F-BztA-Ser-Thro1] were, in that order, 9700 nM and 20 nM.
Turning to `CC(=O)N1CCC[C@]12CC=CCCCC1(CCCC=CCCCOC(=O)N3CC[C@@](C(=O)N[C@@H](Cc4ccccc4Cl)C(=O)N[C@@H](Cc4csc5ccccc45)C(=O)N[C@@H](CO)C(=O)N4CCC[C@H]4CO)(C3)NC(=O)[C@H](CC(C)C)NC(=O)[C@H](Cc3ccccc3)NC(=O)[C@H](C)NC(=O)[C@H](C)NC(=O)[C@H](Cc3cccc(C(=O)O)c3)NC(=O)[C@H](CC(=O)O)NC1=O)NC(=O)[C@H](CC(C)(C)C)NC(=O)[C@H](CC(=O)O)NC2=O` (stereo partly drawn) [I-1906, Ac-PL3-Asp-Npg-B5-Asp-3COOHF-Ala-Ala-Phe-Leu-PyrS2-2C1F-BztA-Ser-Prool], the concentration for half-maximal inhibition (IC50) in experiment [1] is 15500 nM; in experiment [2] it was 23 nM.
As to `CC(=O)N1CCC[C@]12CC=CCCCC1(CCCC=CCCCOC(=O)N3CC[C@@](C(=O)N[C@@H](Cc4ccsc4)C(=O)N[C@@H](Cc4csc5ccccc45)C(=O)N[C@@H](Cc4ccccc4)C(N)=O)(C3)NC(=O)[C@H](CC(C)C)NC(=O)[C@H](Cc3ccccc3)NC(=O)[C@H](C)NC(=O)[C@H](CCCCNC(C)C)NC(=O)[C@H](Cc3cccc(C(=O)O)c3)NC(=O)[C@H](CC(=O)O)NC1=O)NC(=O)[C@H](CC(C)(C)C)NC(=O)[C@H](CC(=O)O)NC2=O` (stereo partly drawn) [I-1909, Ac-PL3-Asp-Npg-B5-Asp-3COOHF-iPrLys-Ala-Phe-Leu-PyrS2-3Thi-BztA-Phe-NH2], the values for the 50% inhibitory concentration (IC50) in experiment [1] and in experiment [2] were > 20000 nM and 29 nM, respectively.
The like results for `CC(=O)N1CCC[C@]12CC=CCCCC1(CCCC=CCCCOC(=O)N3CC[C@@](C(=O)N[C@@H](Cc4ccsc4)C(=O)N[C@@H](Cc4csc5ccccc45)C(=O)N[C@@H](Cc4ccccc4)C(N)=O)(C3)NC(=O)[C@H](CC(C)C)NC(=O)[C@H](Cc3ccccc3)NC(=O)[C@H](C)NC(=O)[C@H](CCCCN)NC(=O)[C@H](Cc3cccc(C(=O)O)c3)NC(=O)[C@H](CC(=O)O)NC1=O)NC(=O)[C@H](CC(C)(C)C)NC(=O)[C@H](CC(=O)O)NC2=O` (stereo partly drawn) [I-1911, Ac-PL3-Asp-Npg-B5-Asp-3COOHF-Lys-Ala-Phe-Leu-PyrS2-3Thi-BztA-Phe-NH2] were, in that order, > 20000 nM and 38 nM.
The like results for `CC(=O)N1CCC[C@]12CC=CCCCC1(CCCC=CCCCOC(=O)N3CC[C@@](C(=O)N[C@@H](Cc4ccsc4)C(=O)N[C@@H](Cc4csc5ccccc45)C(=O)N[C@@H](Cc4ccccc4)C(N)=O)(C3)NC(=O)[C@H](CC(C)C)NC(=O)[C@H](Cc3ccccc3)NC(=O)[C@H](C)NC(=O)[C@H](CCC(N)=O)NC(=O)[C@H](Cc3cccc(C(=O)O)c3)NC(=O)[C@H](CC(=O)O)NC1=O)NC(=O)[C@H](CC(C)(C)C)NC(=O)[C@H](CC(=O)O)NC2=O` (stereo partly drawn) [I-1912, Ac-PL3-Asp-Npg-B5-Asp-3COOHF-Gln-Ala-Phe-Leu-PyrS2-3Thi-BztA-Phe-NH2] were, in that order, 11500 nM and 13 nM.
With `CCCC[C@@H]1NC(=O)[C@H](Cc2cccc(C(=O)O)c2)NC(=O)[C@H](CC(=O)O)NC(=O)C2(CCCC=CCCCOC(=O)N3CC[C@@](C(=O)N[C@@H](Cc4ccsc4)C(=O)N[C@@H](Cc4csc5ccccc45)C(=O)N[C@@H](Cc4ccccc4)C(N)=O)(C3)NC(=O)[C@H](CC(C)C)NC(=O)[C@H](Cc3ccccc3)NC(=O)[C@H](C)NC1=O)CCCC=CC[C@]1(CCCN1C(C)=O)C(=O)N[C@@H](CC(=O)O)C(=O)N[C@@H](CC(C)(C)C)C(=O)N2` (stereo partly drawn) [I-1913, Ac-PL3-Asp-Npg-B5-Asp-3COOHF-nLeu-Ala-Phe-Leu-PyrS2-3Thi-BztA-Phe-NH2], the IC50 stood at 17500 nM in experiment [1] and 119 nM in experiment [2].
In the case of `CC(=O)N1CCC[C@]12CC=CCCCC1(CCCC=CCCCOC(=O)N3CC[C@@](C(=O)N[C@@H](Cc4ccsc4)C(=O)N[C@@H](Cc4csc5ccccc45)C(=O)N[C@@H](Cc4ccccc4)C(N)=O)(C3)NC(=O)[C@H](CC(C)C)NC(=O)[C@H](Cc3ccccc3)NC(=O)[C@H](C)NC(=O)C(C)(C)NC(=O)[C@H](Cc3cccc(C(=O)O)c3)NC(=O)[C@H](CC(=O)O)NC1=O)NC(=O)[C@H](CC(C)(C)C)NC(=O)[C@H](CC(=O)O)NC2=O` (stereo partly drawn) [I-1914, Ac-PL3-Asp-Npg-B5-Asp-3COOHF-Aib-Ala-Phe-Leu-PyrS2-3Thi-BztA-Phe-NH2], the IC50 is 6400 nM in experiment [1] and 52 nM in experiment [2].
Take `CC(=O)N1CCC[C@]12CC=CCCCC1(CCCC=CCCCOC(=O)N3CC[C@@](C(=O)N[C@@H](Cc4ccsc4)C(=O)N[C@@H](Cc4csc5ccccc45)C(=O)N[C@@H](C)C(N)=O)(C3)NC(=O)[C@H](CC(C)C)NC(=O)[C@H](Cc3ccccc3)NC(=O)[C@H](C)NC(=O)[C@H](CCCCNC(C)C)NC(=O)[C@H](Cc3cccc(C(=O)O)c3)NC(=O)[C@H](CC(=O)O)NC1=O)NC(=O)[C@H](CC(C)(C)C)NC(=O)[C@H](CC(=O)O)NC2=O` (stereo partly drawn) [I-1915, Ac-PL3-Asp-Npg-B5-Asp-3COOHF-iPrLys-Ala-Phe-Leu-PyrS2-3Thi-BztA-Ala-NH2]: the IC50 in experiment [1] amounted to 20200 nM; in experiment [2], 11 nM.
For `CC(=O)N1CCC[C@]12CC=CCCCC1(CCCC=CCCCOC(=O)N3CC[C@@](C(=O)N[C@@H](Cc4ccsc4)C(=O)N[C@@H](Cc4csc5ccccc45)C(=O)N[C@@H](C)C(N)=O)(C3)NC(=O)[C@H](CC(C)C)NC(=O)[C@H](Cc3ccccc3)NC(=O)[C@H](C)NC(=O)[C@H](Cc3c[nH]cn3)NC(=O)[C@H](Cc3cccc(C(=O)O)c3)NC(=O)[C@H](CC(=O)O)NC1=O)NC(=O)[C@H](CC(C)(C)C)NC(=O)[C@H](CC(=O)O)NC2=O` (stereo partly drawn) [I-1916, Ac-PL3-Asp-Npg-B5-Asp-3COOHF-His-Ala-Phe-Leu-PyrS2-3Thi-BztA-Ala-NH2] the same measures were 9200 nM and 8 nM.
Consider `CC(=O)N1CCC[C@]12CC=CCCCC1(CCCC=CCCCOC(=O)N3CC[C@@](C(=O)N[C@@H](Cc4ccsc4)C(=O)N[C@@H](Cc4csc5ccccc45)C(=O)N[C@@H](C)C(N)=O)(C3)NC(=O)[C@H](CC(C)C)NC(=O)[C@H](Cc3ccccc3)NC(=O)[C@H](C)NC(=O)[C@H](CCCCN)NC(=O)[C@H](Cc3cccc(C(=O)O)c3)NC(=O)[C@H](CC(=O)O)NC1=O)NC(=O)[C@H](CC(C)(C)C)NC(=O)[C@H](CC(=O)O)NC2=O` (stereo partly drawn) [I-1917, Ac-PL3-Asp-Npg-B5-Asp-3COOHF-Lys-Ala-Phe-Leu-PyrS2-3Thi-BztA-Ala-NH2], for which the IC50 worked out at 37700 nM in experiment [1] and 13 nM in experiment [2].

The values are drawn from patent US20240116985A1, “STAPLED PEPTIDES AND METHODS THEREOF” (priority 2020, published 2024).
